Experimental data from patent US11267826B2, “Penicillin-binding protein inhibitors” (priority 2017, dated 2022).

How the values were obtained:
E. coli PBP2 = biological target: T1, E. coli PBP2 (Escherichia coli, UniProt P0AD65); assay: Bocillin FL competition binding assay, PBP2; design: species or system Escherichia coli K12; conditions: 15 min pre-incubation
T1 construct: 100 μg's of total membrane protein extracts containing PBPs; endogenous in cells; host or cells: Escherichia coli K12, membrane protein fraction
T1 sequence (P0AD65 whole entry): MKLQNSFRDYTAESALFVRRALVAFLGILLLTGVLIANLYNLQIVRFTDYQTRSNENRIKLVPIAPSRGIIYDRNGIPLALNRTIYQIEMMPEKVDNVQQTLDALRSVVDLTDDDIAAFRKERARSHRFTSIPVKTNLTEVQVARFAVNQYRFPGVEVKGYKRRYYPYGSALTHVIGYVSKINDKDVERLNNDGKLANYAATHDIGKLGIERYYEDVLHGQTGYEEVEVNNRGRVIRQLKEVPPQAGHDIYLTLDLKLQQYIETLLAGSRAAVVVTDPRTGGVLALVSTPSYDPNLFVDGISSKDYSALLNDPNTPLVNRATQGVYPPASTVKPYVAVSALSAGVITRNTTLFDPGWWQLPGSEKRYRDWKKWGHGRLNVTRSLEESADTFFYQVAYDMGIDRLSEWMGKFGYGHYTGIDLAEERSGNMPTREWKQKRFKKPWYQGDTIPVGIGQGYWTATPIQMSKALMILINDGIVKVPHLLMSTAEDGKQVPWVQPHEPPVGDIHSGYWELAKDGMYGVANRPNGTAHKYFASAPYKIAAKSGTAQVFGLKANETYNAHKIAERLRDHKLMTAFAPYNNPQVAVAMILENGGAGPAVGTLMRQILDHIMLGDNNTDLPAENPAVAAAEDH
Description: (§1) To determine the ability of test compounds to bind Penicillin Binding Proteins (PBPs), a competition binding assay using Bocillin FL (fluorescent derivative of penicillin V) was adapted from the classical method used to assess PBP potency of beta-lactams.
(§2) Penicillin binding proteins were isolated from Escherichia coli K12 by growth of Escherichia coli K12 from a single colony in 4 L of Luria-Bertani (LB) broth at 35° C. and 250 rpm to an OD600 nm of 0.5. The cells were harvested by centrifugation at 7,000×g for 10 min. at 4° C. Cells were resuspended and washed in 50 mM potassium phosphate pH 7.5. The cells were re-suspended in sonication buffer [50 mM Tris-HCl pH 7.5, 1 mM MgCl2, 1 mM beta-mercaptoethanol, and 5 μg/mL DNAse I] and sonicated by 4 passes of 30 seconds at 45 W on ice. The sample was clarified by centrifugation at 3,000×g to remove cell debris and unbroken cells and supernatant containing the membrane proteins was retained. The membrane proteins including the PBPs were further purified from soluble constituents by an ultracentrifugation step at 100,000×g for 30 min. at 4° C. The membrane proteins are washed twice with 10 mM sodium phosphate pH 7, resuspended in a volume of 5 mL, quantitated by BCA assay, adjusted to […] and frozen at −80° C. until use.
(§3) The adapted Bocillin FL competition binding method described herein incorporates a 15 min. pre-incubation of test compound with isolated PBPs to attempt to balance the difference in mechanism of inhibition between beta-lactams (largely irreversible covalent bond to active site Serine) and the boron-containing PBP inhibitor test compounds (reversible covalent bond to active site Serine). Briefly, 50 μL reactions consisted of 100 μg's of total membrane protein extracts containing PBPs incubated with a dilution series of test compound ranging from 0.005 μg/mL to 2,480 μg/mL in 10 mM sodium phosphate pH7 containing 350 mM NaCl. Thirty minute reactions at 35° C. were initiated by addition of […] Bocillin FL, quenched by addition of SDS-PAGE loading buffer containing sodium dodecyl sulfate (SDS) and heated for 15 minutes at 95° C. to denature proteins in preparation for SDS-polyacrylamide gel electrophoresis. The Bocillin FL labeled PBPs are then separated by SDS-PAGE in Novex NuPage 10% Bis-Tris pre-cast gels (Invitrogen). The SDS-PAGE gel, post-electrophoresis, is then washed in water to remove excess SDS for 10 minutes at room temperature and placed on the scanning bed of a GE Healthcare/Amersham Biosciences Storm 860 fluorescence scanner. The excitation wavelength is in the blue spectrum at 450 nm and the emission at 520 nm is captured by the instrument. Effective PBP inhibitors are detected by a reduction in Bocillin FL labeling of the particular PBP over the dose range of test compound in a dose-responsive manner. High molecular weight PBP 1a/1b are not resolved by these gels, thus we report HMW PBP binding results in μg/mL for PBPs 1a/1b combined as well as for PBP2 and PBP3.
(§4) Representative results are shown in Table 2, where A represents a potency of >1000 μg/mL, B represents a potency between 64 and 1000 μg/mL inclusive, and C represents a potency of <64 μg/mL. NT=Not Tested.

E. coli K12 PBP1a/b = assay: Bocillin FL competition binding assay, PBP1a/1b combined; design: species or system Escherichia coli K12; conditions: 15 min pre-incubation, PBP 1a/1b combined
Description: as §1, §2, §3, §4

S. aureus ATCC 29213 = assay: Broth microdilution MIC assay, S. aureus; format: cell-based; conditions: Staphylococcus aureus, ATCC29213; broth microdilution, 16-20 hours at 37° C.; read-out: S. aureus 29213 MIC
How it was run: (§5)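 Colonies from Mueller Hinton II agar grown 3-5 h at 37° C in cation-adjusted MH broth; OD600-adjusted inoculum, 5×10^5 CFU/mL final, added to 2-fold compound series. 16-20 h, 37° C. Visual MIC, no-growth endpoint.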

E. coli PBP3 = biological target: T2, E. coli PBP3 (Escherichia coli, UniProt P0AD68); assay: Bocillin FL competition binding assay, PBP3; design: species or system Escherichia coli K12; conditions: 15 min pre-incubation
T2 construct: 100 μg's of total membrane protein extracts containing PBPs; endogenous in cells; host or cells: Escherichia coli K12, membrane protein fraction
T2 sequence (P0AD68 1-577): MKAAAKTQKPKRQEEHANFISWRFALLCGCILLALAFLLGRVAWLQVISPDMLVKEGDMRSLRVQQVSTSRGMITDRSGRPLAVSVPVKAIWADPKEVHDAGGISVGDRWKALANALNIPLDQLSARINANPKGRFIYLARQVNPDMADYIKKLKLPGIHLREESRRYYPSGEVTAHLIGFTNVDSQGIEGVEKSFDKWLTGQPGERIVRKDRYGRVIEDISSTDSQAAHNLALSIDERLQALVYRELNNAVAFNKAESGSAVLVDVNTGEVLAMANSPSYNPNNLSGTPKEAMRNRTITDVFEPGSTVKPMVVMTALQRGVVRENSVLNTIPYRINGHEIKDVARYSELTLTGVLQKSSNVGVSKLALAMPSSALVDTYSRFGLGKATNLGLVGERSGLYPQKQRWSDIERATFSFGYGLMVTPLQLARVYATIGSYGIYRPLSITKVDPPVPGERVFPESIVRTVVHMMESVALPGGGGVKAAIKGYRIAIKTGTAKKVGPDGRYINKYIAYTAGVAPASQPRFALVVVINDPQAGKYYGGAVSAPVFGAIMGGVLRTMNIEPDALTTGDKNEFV
Description: as §1, §2, §3, §4

[1] = system: hyper-permeable E. coli 901C; assay: Broth microdilution MIC assay, hyper-permeable E. coli; format: cell-based; conditions: Escherichia coli, read-out: E. coli 901C MIC
How it was run: as §5

| Structure (SMILES) | E. coli PBP2 Potency (E. coli PBP2) | E. coli K12 PBP1a/b Potency (E. coli K12 PBP1a/b) | MIC (S. aureus ATCC 29213) | E. coli PBP3 Potency (E. coli PBP3) | MIC [1] |
| --- | --- | --- | --- | --- | --- |
| NCCCCCNC(=O)CO/N=C(\C(=O)N[C@H]1Cc2cccc(C(=O)O)c2OB1O)c1csc(N)n1 [Example 67, (R,Z)-3-(2-((2-((5-aminopentyl)amino)-2-oxoethoxy)imino)-2-(2-aminothiazol-4-yl)acetamido)-2-hydroxy-3,4-dihydro-2H-benzo[e][1,2]oxaborinine-8-carboxylic Acid] | B (B represents a potency between 64 and 1000 μg/mL inclusive) | B (B represents a potency between 64 and 1000 μg/mL inclusive) | > 128 µg/mL | C (C represents a potency of <64 μg/mL) | < 64 µg/mL |
| Nc1nc(/C(=N/OCC(=O)N2CCNCC2)C(=O)N[C@H]2Cc3cccc(C(=O)O)c3OB2O)cs1 [Example 58, (R,Z)-3-(2-(2-aminothiazol-4-yl)-2-((2-oxo-2-(piperazin-1-yl)ethoxy)imino)acetamido)-2-hydroxy-3,4-dihydro-2H-benzo[e][1,2]oxaborinine-8-carboxylic Acid] | C (C represents a potency of <64 μg/mL) | B (B represents a potency between 64 and 1000 μg/mL inclusive) | > 128 µg/mL | C (C represents a potency of <64 μg/mL) | < 64 µg/mL |
| Nc1nc(/C(=N/O)C(=O)N[C@H]2Cc3cc(CCC(=O)O)cc(C(=O)O)c3OB2O)cs1 [Example 37, (R,Z)-3-(2-(2-aminothiazol-4-yl)-2-(hydroxyimino)acetamido)-6-(2-carboxyethyl)-2-hydroxy-3,4-dihydro-2H-benzo[e][1,2]oxaborinine-8-carboxylic Acid] | C (C represents a potency of <64 μg/mL) | B (B represents a potency between 64 and 1000 μg/mL inclusive) | 64 to 128 µg/mL | B (B represents a potency between 64 and 1000 μg/mL inclusive) | < 64 µg/mL |
| Nc1nc(/C(=N/O)C(=O)N[C@H]2Cc3cc(CO)cc(C(=O)O)c3OB2O)cs1 [Example 35, (R,Z)-3-(2-(2-aminothiazol-4-yl)-2-(hydroxyimino)acetamido)-2-hydroxy-6-(hydroxymethyl)-3,4-dihydro-2H-benzo[e][1,2]oxaborinine-8-carboxylic Acid] | A (A represents a potency of >1000 μg/mL) | C (C represents a potency of <64 μg/mL) | 64 to 128 µg/mL | B (B represents a potency between 64 and 1000 μg/mL inclusive) | > 128 µg/mL |
| Nc1nc(/C(=N/O)C(=O)N[C@H]2Cc3cccc(C(=O)O)c3OB2O)c(Cl)s1 [Example 17, (R,Z)-3-(2-(2-amino-5-chlorothiazol-4-yl)-2-(hydroxyimino)acetamido)-2-hydroxy-3,4-dihydro-2H-benzo[e][1,2]oxaborinine-8-carboxylic Acid] | B (B represents a potency between 64 and 1000 μg/mL inclusive) | B (B represents a potency between 64 and 1000 μg/mL inclusive) | < 64 µg/mL | B (B represents a potency between 64 and 1000 μg/mL inclusive) | 64 to 128 µg/mL |
| Nc1nc(/C(=C/c2cccnc2)C(=O)N[C@H]2Cc3cccc(C(=O)O)c3OB2O)cs1 [Example 87, (R,Z)-3-(2-(2-aminothiazol-4-yl)-3-(pyridin-3-yl)acrylamido)-2-hydroxy-3,4-dihydro-2H-benzo[e][1,2]oxaborinine-8-carboxylic Acid] | B (B represents a potency between 64 and 1000 μg/mL inclusive) | A (A represents a potency of >1000 μg/mL) | 64 to 128 µg/mL | B (B represents a potency between 64 and 1000 μg/mL inclusive) | < 64 µg/mL |
| Nc1nc(/C(=C\C(=O)O)C(=O)N[C@H]2Cc3cccc(C(=O)O)c3OB2O)cs1 [Example 88, (R,E)-3-(2-(2-aminothiazol-4-yl)-3-carboxyacrylamido)-2-hydroxy-3,4-dihydro-2H-benzo[e][1,2]oxaborinine-8-carboxylic Acid] | B (B represents a potency between 64 and 1000 μg/mL inclusive) | A (A represents a potency of >1000 μg/mL) | > 128 µg/mL | B (B represents a potency between 64 and 1000 μg/mL inclusive) | 64 to 128 µg/mL |
| CC(C)(O/N=C(\C(=O)N[C@H]1Cc2cccc(C(=O)O)c2OB1O)c1csc(N)n1)C(=O)NCC(=O)O [Example 75, (R,Z)-3-(2-(2-aminothiazol-4-yl)-2-(((1-((carboxymethyl)amino)-2-methyl-1-oxopropan-2-yl)oxy)imino)acetamido)-2-hydroxy-3,4-dihydro-2H-benzo[e][1,2]oxaborinine-8-carboxylic Acid] | C (C represents a potency of <64 μg/mL) | C (C represents a potency of <64 μg/mL) | > 128 µg/mL | C (C represents a potency of <64 μg/mL) | < 64 µg/mL |
| COc1cc2c(c(C(=O)O)c1)OB(O)[C@@H](NC(=O)/C(=N\O)c1csc(N)n1)C2 [Example 42, (R,Z)-3-(2-(2-aminothiazol-4-yl)-2-(hydroxyimino)acetamido)-2-hydroxy-6-methoxy-3,4-dihydro-2H-benzo[e][1,2]oxaborinine-8-carboxylic Acid] | C (C represents a potency of <64 μg/mL) | C (C represents a potency of <64 μg/mL) | < 64 µg/mL | C (C represents a potency of <64 μg/mL) | < 64 µg/mL |
| CC(O/N=C(\C(=O)N[C@H]1Cc2cccc(C(=O)O)c2OB1O)c1csc(N)n1)C(N)=O (stereo partly drawn) [Example 73, (3R)-3-((Z)-2-(((1-amino-1-oxopropan-2-yl)oxy)imino)-2-(2-aminothiazol-4-yl)acetamido)-2-hydroxy-3,4-dihydro-2H-benzo[e][1,2]oxaborinine-8-carboxylic Acid] | C (C represents a potency of <64 μg/mL) | C (C represents a potency of <64 μg/mL) | > 128 µg/mL | C (C represents a potency of <64 μg/mL) | < 64 µg/mL |
